Measured values reported in patent US6448405B1, “Steroid receptor modulator compounds and methods” (Ligand Pharmaceuticals Incorporated, priority 1994, dated 2002).
Like-named read-outs stand apart in the source and are kept apart here.

Experiments:
[1] = target: T1, human androgen receptor (AR) (Homo sapiens, UniProt P10275); assay: Co-transfection assay, AR agonist and antagonist activity, CV-1 cells (pRShAR); assay type: cell-based; conditions: for AR Agonist CV-1 Cells Efficacy (%): relative to DHT; for AR Antagonist CV-1 Cells Efficacy (%): % maximal inhibition
T1 construct: expressed in transfected cells; host or cells: CV-1 cells, transient transfection
T1 sequence (P10275 1-920): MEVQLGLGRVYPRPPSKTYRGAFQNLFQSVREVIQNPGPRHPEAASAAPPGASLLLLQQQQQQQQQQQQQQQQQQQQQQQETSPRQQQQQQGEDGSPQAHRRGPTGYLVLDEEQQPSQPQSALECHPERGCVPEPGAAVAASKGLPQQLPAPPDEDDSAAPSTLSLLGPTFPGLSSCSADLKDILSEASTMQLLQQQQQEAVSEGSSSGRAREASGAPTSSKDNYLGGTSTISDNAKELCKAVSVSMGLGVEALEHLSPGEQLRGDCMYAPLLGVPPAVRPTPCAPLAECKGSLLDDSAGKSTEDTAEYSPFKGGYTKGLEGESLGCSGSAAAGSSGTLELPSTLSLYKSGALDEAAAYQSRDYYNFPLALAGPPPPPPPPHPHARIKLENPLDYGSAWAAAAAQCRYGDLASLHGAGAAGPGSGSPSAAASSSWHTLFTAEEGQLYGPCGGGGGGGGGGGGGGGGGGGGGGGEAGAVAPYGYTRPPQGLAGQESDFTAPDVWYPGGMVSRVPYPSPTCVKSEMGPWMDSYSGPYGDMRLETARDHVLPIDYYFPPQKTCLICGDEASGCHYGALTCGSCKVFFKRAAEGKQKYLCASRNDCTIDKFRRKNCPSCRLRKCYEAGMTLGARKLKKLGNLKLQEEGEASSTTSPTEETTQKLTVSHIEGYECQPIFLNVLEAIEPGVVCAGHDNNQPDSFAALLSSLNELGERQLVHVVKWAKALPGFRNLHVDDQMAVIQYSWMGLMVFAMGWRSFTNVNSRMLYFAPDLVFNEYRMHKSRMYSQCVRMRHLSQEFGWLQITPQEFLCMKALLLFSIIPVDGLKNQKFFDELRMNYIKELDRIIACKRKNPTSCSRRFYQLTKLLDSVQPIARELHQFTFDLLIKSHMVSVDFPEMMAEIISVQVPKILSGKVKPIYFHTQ

human AR = target: T2, human AR (Homo sapiens, UniProt P10275); assay: AR whole cell binding assay, transfected COS-1 cells, 3H-DHT
T2 construct: expressed in transfected cells; host or cells: COS-1 cells, transient transfection
T2 sequence (P10275 1-920): T1 sequence (P10275 1-920)

human PR-B = target: T3, human PR-B (Homo sapiens, UniProt P06401); assay: Co-transfection assay, PR agonist and antagonist activity, CV-1 cells; assay type: cell-based;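 further: luciferase reporter driven by a hormone response element, co-transfected with human PR-B into CV-1 monkey kidney cells, agonists raise and antagonists lower the reporter signal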
T3 construct: expressed in transfected cells; host or cells: CV-1 cells (African green monkey kidney fibroblasts), transient transfection
T3 sequence (P06401 1-933): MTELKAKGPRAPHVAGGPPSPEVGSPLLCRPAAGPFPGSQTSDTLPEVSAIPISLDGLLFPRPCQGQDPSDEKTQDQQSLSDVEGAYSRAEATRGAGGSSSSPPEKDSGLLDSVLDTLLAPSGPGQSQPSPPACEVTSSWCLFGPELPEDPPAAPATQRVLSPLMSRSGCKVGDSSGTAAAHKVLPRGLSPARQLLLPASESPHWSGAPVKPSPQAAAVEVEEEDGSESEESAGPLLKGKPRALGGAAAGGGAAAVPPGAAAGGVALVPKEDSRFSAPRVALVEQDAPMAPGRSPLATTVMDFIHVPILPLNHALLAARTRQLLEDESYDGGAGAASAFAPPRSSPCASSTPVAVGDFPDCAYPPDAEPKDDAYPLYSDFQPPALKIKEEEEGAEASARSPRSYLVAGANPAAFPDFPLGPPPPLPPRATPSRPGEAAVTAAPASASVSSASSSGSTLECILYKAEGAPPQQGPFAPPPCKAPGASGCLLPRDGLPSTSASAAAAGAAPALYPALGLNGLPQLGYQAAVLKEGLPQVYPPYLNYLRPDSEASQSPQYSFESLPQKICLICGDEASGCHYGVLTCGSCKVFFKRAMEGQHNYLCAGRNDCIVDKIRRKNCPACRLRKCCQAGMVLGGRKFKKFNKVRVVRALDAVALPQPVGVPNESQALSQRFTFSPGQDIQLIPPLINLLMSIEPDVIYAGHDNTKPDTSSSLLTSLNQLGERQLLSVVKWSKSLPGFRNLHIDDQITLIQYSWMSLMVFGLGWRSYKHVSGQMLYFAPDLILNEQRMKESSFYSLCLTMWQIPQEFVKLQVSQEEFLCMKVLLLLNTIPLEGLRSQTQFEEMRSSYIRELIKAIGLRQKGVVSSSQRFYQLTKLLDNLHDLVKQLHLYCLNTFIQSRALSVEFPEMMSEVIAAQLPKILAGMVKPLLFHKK

[2] = target: T4, human progesterone receptor A form (PR-A) (Homo sapiens, UniProt P06401); assay: PR binding assay, baculovirus extract, [3H] progesterone; conditions: read-out: PR Binding Ki
T4 sequence (P06401 1-769 isoform P06401-2): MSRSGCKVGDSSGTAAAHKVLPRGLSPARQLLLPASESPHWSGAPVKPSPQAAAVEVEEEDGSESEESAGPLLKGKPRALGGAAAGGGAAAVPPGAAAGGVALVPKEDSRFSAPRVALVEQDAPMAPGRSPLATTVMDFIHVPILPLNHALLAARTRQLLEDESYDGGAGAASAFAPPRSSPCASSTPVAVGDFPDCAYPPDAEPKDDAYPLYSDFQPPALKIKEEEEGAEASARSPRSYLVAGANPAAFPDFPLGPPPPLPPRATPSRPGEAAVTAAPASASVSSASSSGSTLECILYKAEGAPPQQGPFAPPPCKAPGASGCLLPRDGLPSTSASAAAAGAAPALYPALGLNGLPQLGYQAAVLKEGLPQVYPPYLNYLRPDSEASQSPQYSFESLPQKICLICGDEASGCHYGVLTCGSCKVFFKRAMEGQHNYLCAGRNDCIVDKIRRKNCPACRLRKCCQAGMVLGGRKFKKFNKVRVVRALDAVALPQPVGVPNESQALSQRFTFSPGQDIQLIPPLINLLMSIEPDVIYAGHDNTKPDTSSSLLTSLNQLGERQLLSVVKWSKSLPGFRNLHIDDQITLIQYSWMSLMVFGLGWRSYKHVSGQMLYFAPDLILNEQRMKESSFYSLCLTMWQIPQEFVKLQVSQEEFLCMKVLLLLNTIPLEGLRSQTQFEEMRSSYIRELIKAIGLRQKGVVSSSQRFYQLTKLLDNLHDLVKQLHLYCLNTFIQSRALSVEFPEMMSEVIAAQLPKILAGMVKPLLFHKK

[3] = system: uterine wet weight in ovariectomized Sprague-Dawely rats; assay: Uterine wet weight assay (PR agonists); assay type: in vivo, rat; conditions: MPA and Compound 210 at 0.3, 1.0 and 3.0 mg/rat; Compound 163 at 3 mg/rat
Description: The effectiveness of selected compounds of the present invention as PR agonists was investigated in the well recognized uterine wet weight assay, as described in G. J. Marcus, “Mitosis in the rat uterus during the estrous cycle, early pregnancy and early pseudopregnancy”, 10 Biol. Reprod., 447 (1974), S. […] J. Obstet. […] I. Dorfman, “Estrogens” (Ch. 2) and “Antiestrogens” (Ch. 3). in Methods in Hormone Research, ed. R. I. Dorfman, Academic Press, New York, New York, pp101-130 (1969), the disclosures of which are herein incorporated by reference. Four to five week old, ovariectomized, Sprague-Dawely rats (Harlan-Sprague-Dawely, Indianapolis, Ind.) were obtained 1 week after surgery and allowed to acclimate for an additional week after shipment. […] Louis, Mo.) a synthetic estrogen agonist, were fully dissolved in purified sesame oil (Croda, Parsippany, N.J.). […] Additional control groups of rats were administered estrone or vehicle (i.e. sesame oil) alone. Animals were sacrificed on the fourth day of the experiment.

PR, AR, ER, GR and MR = assay: cis-trans or co-transfection assay, steroid receptor panel (cross-reactivity); assay type: cell-based, human; conditions: as seen in the Tables
[4] = read-out: AR Agonist CV-1 Cells Potency, agonist mode, EC50
[5] = antagonist mode, DHT at its EC50
[6] = read-out: AR Antagonist CV-1 Cells Potency, Table 2, antagonist mode, IC50
[7] = read-out: AR Agonist CV-1 Cells Potency, Table 2, agonist mode, EC50

Structure (SMILES)	EC50 [1] [nM]	IC50 [1] [nM]	AR Agonist CV-1 Cells Efficacy (%) ([1]; Table 2, agonist mode)	AR Antagonist CV-1 Cells Efficacy (%) ([1]; Table 2, antagonist mode)	AR Agonist CV-1 Cells Efficacy (%) ([1]; agonist mode)	EC50 [1, 4] [nM]	Ki (human AR; competition with 1 nM 3H-DHT, COS-1 whole cells, three hours at 37° C., read-out: AR Binding Ki) [nM]	AR Antagonist CV-1 Cells Efficacy (%) [1, 5]	IC50 [1, 6] [nM]	Ki (human AR) [nM]	EC50 (human PR-B; agonist mode, EC50, read-out: PR Agonist CV-1 Cells Potency) [nM]	IC50 (human PR-B; read-out: PR Antagonist CV-1 Cells Potency) [nM]	Ki [2] [nM]	effect on uterine wet weight when co-administered with estrone [3]	steroid receptor selectivity profile (PR, AR, ER, GR and MR)	EC50 [1, 7] [nM]
CC1C(=O)C(C)(C)Nc2cc3[nH]c(=O)cc(C(F)(F)F)c3cc21 (racemic) [Compound 418, (R/S)-1,2,3,4-Tetrahydro-6-trifluoromethyl-2,2,4-trimethyl-8-pyridono[5,6-f]-3-quinolinone]	> 10000	200	na (na = not active (i.e. efficacy of <20 and potency of >10,000))	63%	na (na = not active (i.e. efficacy of <20 and potency of >10,000))	> 10000	1000	–	–	–	–	–	–	–	–	–
CCC1CCNc2cc3oc(=O)cc(C(F)(F)F)c3cc21 (racemic) [Compound 414, (R/S)-4-Ethyl-1,2,3,4-tetrahydro-6-trifluoromethyl-8-pyranono[5,6-g]quinoline]	1	> 10000	118%	na (na = not active (i.e. efficacy of <20 and potency of >10,000))	–	–	–	na (na = not active (i.e. efficacy of <20 and potency of >10,000))	> 10000	0.3	–	–	–	–	–	–
CC1=CC(C)(C)Nc2ccc3c(c21)C(c1ccc(Cl)cc1)Oc1ccccc1-3 (racemic) [Compound 163, (R/S)-5-(4-Chlorophenyl)-1,2-dihydro-2,2,4-trimethyl-5H-chromeno[3,4-f]quinoline]	–	–	–	–	–	–	–	–	–	–	15	3620	1	decreased by approximately half	highly selective PR agonists	–
CC1=CC(C)(C)Nc2cc3oc(=O)cc(C(F)(F)F)c3cc21 [Compound 238, 1,2-Dihydro-2,2,4-trimethyl-6-trifluoromethyl-8-pyranono[5,6-g]quinoline]	10	> 10000	96%	na (na = not active (i.e. efficacy of <20 and potency of >10,000))	–	–	–	na (na = not active (i.e. efficacy of <20 and potency of >10,000))	> 10000	44	–	–	–	–	–	–
CC1=CC(C)(C)Nc2cc3oc(=O)cc(C(F)(F)C(F)(F)F)c3cc21 [Compound 256, 1,2-Dihydro-2,2,4-trimethyl-6-(1,1,2,2,2-pentafluoroethyl)-8-pyranono[5,6-g]quinoline]	> 10000	62	na (na = not active (i.e. efficacy of <20 and potency of >10,000))	91%	na (na = not active (i.e. efficacy of <20 and potency of >10,000))	–	–	–	–	4500	–	–	–	–	–	> 10000
CC1=CC(C)(C)N(C)c2cc3oc(=O)cc(C(F)(F)F)c3cc21 [Compound 265, 1,2-Dihydro-1,2,2,4-tetramethyl-6-trifluoromethyl-8-pyranono[5,6-g]quinoline]	> 10000	56	na (na = not active (i.e. efficacy of <20 and potency of >10,000))	78%	na (na = not active (i.e. efficacy of <20 and potency of >10,000))	–	–	–	–	23	–	–	–	–	–	> 10000
CC1CC(C)(C)Nc2cc3oc(=O)cc(-c4ccoc4)c3cc21 (racemic) [Compound 405, (R/S)-5-(3-Furyl)-1,2,3,4-tetrahydro-2,2,4-trimethyl-8-pyranono[5,6-g]quinoline]	> 10000	77	na (na = not active (i.e. efficacy of <20 and potency of >10,000))	89%	na (na = not active (i.e. efficacy of <20 and potency of >10,000))	> 10000	–	–	–	6	–	–	–	–	–	–
